Columns and labels:
[1] = system: drug-resistant suppurative streptococcus; assay: Acute or chronic suppurative faucitis model of mice, upper respiratory tract infection; format: in vivo
Text: B. Preparation of the acute or chronic suppurative faucitis model of little mice infected by the drug-resistant suppurative streptococcus with the upper respiratory tract:
(§1) 10 healthy Kunming mice (18˜22 g), male and female, were infected by the drug-resistant suppurative streptococcus with the upper respiratory tract in way of spraying which induced the acute or chronic suppurative faucitis of mice, and then promptly treated with aerosol (powder or liquid) at the dose of 30000 u/ml/20 g and give medicines three times a day. Observe for one week after infecting and record the efficient rate of mice. […]

[2] = system: drug-resistant suppurative streptococcus; assay: Amygdalitis model of mice, upper respiratory tract infection; format: in vivo
Text: C. The preparation of the amygdalitis model of mice infected by the drug-resistant suppurative streptococcus with the upper respiratory tract:
as §1, with “female,” for “female, were”, “induce” for “induced”, “amygdalitis” for “acute or chronic suppurative faucitis”, “mice,” for “mice, and”, “suck” for “treated with”, “according to” for “at the dose of”

[3] = system: bronchus pneumonia of mice by sucking the hydrochloric acid; assay: Bronchus pneumonia (bronchus lung injury) of mice by sucking atomized hydrochloric acid; format: in vivo, Kunming mice
Description: D. The effect of human lysozyme to bronchus pneumonia of mice by sucking the hydrochloric acid:
50 mice were equally divided to 5 groups at random, selecting randomly 4 groups among them to make the model of the mice atomized hydrochloric acid.
Each batch of 10 mice was put in Glass desiccator which equipped the self-made atomizer contained 1 N HCI solution. The principle of electronic supra-frequency shaker was used to atomizate hydrochloric acid, then it was inspired for 1 hour by mice to make model of inspiring bronchus lung injury. Its mechanism is that inspiring acidoid can cause adhesion of leucocyte and increasing expression of ICAM-1 and permeability of endotheliocyte and cellula epithelialis to protein, thereby to cause pneumochysis. Otherwise inspiring acidoid can cause the release of phlegmonosis cytokine. Assembling in lung and reciprocal activation of these cytokine and neutrophilic leukocyte can induce cell adhesion and tissue damage.
40 mice models were gathered and then randomly divided to 4 groups. 3 groups were treated with drug, 1 group were treated as model group.
The concentration of recombinant human lysozyme medicine was set at 15000 u/ml in clinical atomization therapy. The dose was 15000 u per time once daily, I.e 0.5 mg per time. The dose was 1.3×10^−3mg a mice (calculated by weight of 20 g). Human ventilatory capacity (9000 ml/min) corresponded with 375 times of mice ventilatory capacity (24 ml/min). Human single dose (0.5 mg/70 kg) corresponded with 384 times of mice dose (1.3×10^−3 mg/20 g). Two folds between ventilatory capacity and single dose were closed, so clinical human dose was used for atomization therapy of mice. Availability of clinical inspiring lysozyme atomized was higher than breathing amount of mice by itself in atomizer. To ensure the breathing amount of lysozyme, the breathing time were extended for 1 hour. Based on 0.5 mg/ml as low dose, the concentration of 1.0 mg/ml and 2.0 mg/ml were set respectively as middle and high dose. The mice were put into the glass desiccator and then treated with human lysozyme atomized in the compression sprayer (PARL.BOY) once daily, and continued 5-10 days (shown in FIG. 2).
As atomization was treated to the 5th and 10th day, half animals (5) of every group were dissected, then the lung tissues were weighed and the lung coefficients were calculated according to the weight. Pathological changes of appearance and the lung tissue were observed respectively by naked eye and pathological section.

HELA cell = assay: Toxicity to HELA cell (CPE, Reed-Muench)
Description: 1. Determination of the Toxicity of Recombinant Human Lysozyme to HELA Cell:
HELA cells were seeded on 96-well culture plates at the concentration of 400,000/mi and grown at 37° C. in a 5% CO2 incubator for 2 hours. 100 μl recombinant human lysozyme which were double-diluted from 6000 ug/ml to 11.7 ug/ml and positive reference medicine which were double-diluted from 6000 ug/ml to 11.7 ug/ml were respectively added to 3 wells per concentration. At the same time the reference cells were cultivated at 37° C. in a 5% CO2 incubator for 6 days. Inverted microscope was used everyday to observe the cytopathic effect (CPE). The cytopathic effect under 25% was recorded as “+”, the cytopathic effect under 26%˜50% was recorded as “++”, the cytopathic effect under 51%˜75% was recorded as “+++” and the cytopathic effect under 76%˜100% was recorded as “++++”. Drug median toxic dose (TD50) and minimum toxic dose (TD0) were calculated by using Reed-Muench method.

No. 04 Coronavirus [4] = assay: Inhibition on No. 04 Coronavirus in HELA cells (CPE method); format: cell-based
Description: HELA cells were seeded on 96-well cultivation plates at the concentration of 400,000/ml and grown to monolayer at 37° C. in 5% CO2 incubator for 24 hours. After removal of cultivation liquid, coronavirus liquid were added to HELA cells and absorbed at 37° C. in 5% CO2 incubator for 2 hours. […] At the same time reference cells and reference virous were cultivated at 37° C. in 5% CO2 incubator for 5 to 7 days. Inverted microscope was used everyday to observe the cytopathic effect (CPE) of virus. The determination were ended according to the appearance of “+++-++++”. […] The determination was repeated three times.

No. 04 Coronavirus [5] = assay: organism not typed; format: cell-based
Description: HELA cells were seeded on 96-well cultivation plates at the concentration of 400,000/ml and grown to monolayer at 37° C. in 5% CO2 incubator for 24 hours. […] Then 100 TCID50coronavirus liquid were added to HELA cells. At the same time reference cell and reference virous were cultivated at 37° C. in 5% CO2 incubator for 5 to 7 days. At the same time normal cell reference and virous reference were cultivated at 37° C. in 5% CO2 incubator for 5 to 7 days. Inverted microscope was used everyday to observe the cytopathic effect (CPE) of virus. The determination were ended according to the appearance of “+++-++++”. […] The determination was repeated three times.

[6] = 10 mice, aerosol 30000 u/ml/20 g three times a day, one week
[7] = atomized solution and inhalation
[8] = high dosage 2.0 mg/ml, atomization treated for 5 days
[9] = high dosage 2.0 mg/ml, atomization treated for 10 days
[10] = low dosage 0.5 mg/ml, atomization treated for 5 days
[11] = low dosage 0.5 mg/ml, atomization treated for 10 days
[12] = median dosage 1.0 mg/ml, atomization treated for 5 days
[13] = median dosage 1.0 mg/ml, atomization treated for 10 days
[14] = inhibition: drug added after virus absorbed 2 hours, mean of thrice test
[15] = prevention: drug absorbed 2.5 hours before 100 TCID50 virus, mean of thrice test

## Human lysozyme: gene recombinant Human Lysozyme (HLZ), active unit 30000 u/mg, batch number 020110; given atomized / as aerosol
[1]; [6]
  Efficient %: 100%
  Healing: 8
  Invalid: 0
  Valid: 2
[1]; [7]
  curative effect to acute or chronic suppurative faucitis of mice: obvious curative effect
[2]; [6]
  Efficient %: 100%
  Healing: 8
  Invalid: 0
  Valid: 2
[2]; [7]
  curative effect to the amygdalitis of mice: obvious curative effect
[3]; atomization
  effect on mice model of bronchus lung injury caused by inspiring hydrochloric acid: validated effective
[3]; [8]
  Lung coefficient (g/g) × 10^−3: 9.1 ± 1.00 (g/g) × 10^−3
  Weight: 29.4 ± 3.3 g
[3]; [9]
  Lung coefficient (g/g) × 10^−3: 8.32 ± 1.84 (g/g) × 10^−3
  Weight: 31.2 ± 2.0 g
[3]; high dosage group, 5 days
  pathohistology observation of bronchiole and bronchia in lung: little infiltration of a few monocytes and lymphocytes in bronchus between lobules, and a few phlegmasia cells and secretion in part bronchioles
  pathological section: animals changed pathologically: 2/5
  pathological section: animals normal: 3/5
[3]; [10]
  Lung coefficient (g/g) × 10^−3: 7.30 ± 0.43 (g/g) × 10^−3
  Weight: 29.6 ± 1.6 g
[3]; [11]
  Lung coefficient (g/g) × 10^−3: 7.10 ± 0.61 (g/g) × 10^−3
  Weight: 30.7 ± 3.0 g
[3]; low dosage group, 5 days
  pathohistology observation of bronchiole and bronchia in lung: two spalling of epithelium mucosae in bronchioles and bronchia of one lung tissue, a little erythrocytes in bronchiole lumina of another lung tissue, and normality in the others
  pathological section: animals kept normally: 4/5
[3]; [12]
  Lung coefficient (g/g) × 10^−3: 7.8 ± 0.65 (g/g) × 10^−3
  Weight: 29.2 ± 2.4 g
[3]; [13]
  Lung coefficient (g/g) × 10^−3: 8.30 ± 1.40 (g/g) × 10^−3
  Weight: 30.6 ± 2.2 g
[3]; median dosage group, 5 days
  pathohistology observation of bronchiole and bronchia in lung: little infiltration of a few monocytes and lymphocytes around part bronchioles, intactness of upper strata wall of most bronchioles tunica mucosa, spalling of a few epithelium mucosae
  pathological section: animals kept normally: 5/5
HELA cell
  median toxic dose (TD50): 1500 ± 0 µg/mL
  minimum toxic dose (TD0): 750 ± 0 µg/mL
No. 04 Coronavirus [4]; inhibition: drug added after virus
  therapeutic index (TI): 16
No. 04 Coronavirus [4]; [14]
  median inhibitory concentration (IC50): 23.4 ± 0 µg/mL
  minimum inhibitory concentration (MIC): 46.8 ± 0 µg/mL
No. 04 Coronavirus [5]; [15]
  median inhibitory concentration (IC50): 5.9 ± 0 µg/mL
  minimum inhibitory concentration (MIC): 11.7 ± 0 µg/mL
No. 04 Coronavirus [5]; prevention: drug before virus
  therapeutic index (TI): 64

Reference: US20080031868A1, “HUMAN LYSOZYME MEDICINE, ITS MANUFACTURING METHOD AND APPLICATION THEREOF” (priority 2005, published 2008)
